Laboratory results published in article PMC6326163, “Choline Is an Intracellular Messenger Linking Extracellular Stimuli to IP3-Evoked Ca^2+ Signals through Sigma-1 Receptors” (Cell Reports, 2019).
Where two headings read alike, the source gives them in different places.

Biological target: T1, Sigma-1 receptor (Sig-1R) (Homo sapiens, UniProt Q99720)
T1 construct: gene SIGMAR1; human Sig-1R-GFP stably expressed in Neuro-2A cell membranes
Experiment: [3H](+)-pentazocine competition radioligand binding, membranes

T1 sequence (Q99720 whole entry): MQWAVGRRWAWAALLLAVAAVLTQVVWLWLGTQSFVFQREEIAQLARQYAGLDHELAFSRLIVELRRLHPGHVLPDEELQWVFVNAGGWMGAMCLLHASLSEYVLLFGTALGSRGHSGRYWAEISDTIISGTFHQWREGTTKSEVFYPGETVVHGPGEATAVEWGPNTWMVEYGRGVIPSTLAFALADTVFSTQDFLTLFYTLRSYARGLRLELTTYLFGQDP

Structure (SMILES)	Ki [µM]	Ki (read-out: Ki) [µM]
C[N+](C)(C)CCO [Choline]	525	–
CC(=O)OCC[N+](C)(C)C [acetylcholine]	–	~12000
C[N+](C)(C)CC(=O)O [betaine]	–	1320
